Where two headings read alike, the source gives them in different places.
Key:
Assay in all cases: Kinase profile (33P ATP filter binding)
Assay type in all cases: biochemical
OSR1 = OSR1 (Homo sapiens, UniProt O95747); settings: read-out: Remaining protein kinase activity
Experimental: (§1) The compounds were diluted to the appropriate concentration. The compounds were added to a “mother plate” consisting of samples, controls, and blanks. These serve as the source for “daughter plates” which are stored at −20 °C until assay initiation. Protein Kinases: Enzyme/Substrate mixture was added to the compound, and the compounds were incubated for five minutes at room temperature (RT). ^33P ATP was added to the compounds to initiate the assay. Orthophosphoric acid was added to the compounds to halt the assay. Assay components were harvested onto P81 filter plates, filter plates were air-dried, scintillation fluid was added to plates, and counts were read on a Topcount NXT. A mean percentage activity was calculated.

STK33 = STK33 (Homo sapiens, UniProt Q9BYT3); settings: read-out: Remaining protein kinase activity
Experimental: as §1

CK2 = CK2 (Homo sapiens, UniProt P68400); settings: read-out: Remaining protein kinase activity
Experimental: as §1

SmMLCK = SmMLCK (Homo sapiens, UniProt Q15746); settings: read-out: Remaining protein kinase activity
Experimental: as §1

HIPK1 = HIPK1 (Homo sapiens, UniProt Q86Z02); settings: read-out: Remaining protein kinase activity
Experimental: as §1

PRAK = molecular target: T1, PRAK (Homo sapiens, UniProt Q8IW41); settings: read-out: Remaining protein kinase activity
T1 sequence (Q8IW41 1-473): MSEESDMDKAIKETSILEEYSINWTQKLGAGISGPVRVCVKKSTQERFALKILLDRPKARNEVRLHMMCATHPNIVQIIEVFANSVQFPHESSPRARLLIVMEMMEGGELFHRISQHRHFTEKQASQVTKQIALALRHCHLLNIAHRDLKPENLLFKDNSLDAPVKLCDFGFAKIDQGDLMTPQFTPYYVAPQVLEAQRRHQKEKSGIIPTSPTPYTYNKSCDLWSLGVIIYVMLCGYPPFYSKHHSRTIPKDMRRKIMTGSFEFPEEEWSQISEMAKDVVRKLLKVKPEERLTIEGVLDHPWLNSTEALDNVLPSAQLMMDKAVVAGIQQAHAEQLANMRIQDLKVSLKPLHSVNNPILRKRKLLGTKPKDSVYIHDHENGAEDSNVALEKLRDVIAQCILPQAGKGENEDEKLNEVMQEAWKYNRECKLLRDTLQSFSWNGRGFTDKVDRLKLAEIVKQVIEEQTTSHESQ
Experimental: as §1

MLK3 = MLK3 (Homo sapiens, UniProt Q16584)
Experimental: as §1

AMPK (hum) = AMPK (hum) (Homo sapiens, UniProt Q13131); settings: read-out: Remaining protein kinase activity
Experimental: as §1

EIF2AK3 = molecular target: T2, EIF2AK3 (Homo sapiens, UniProt Q9NZJ5); settings: read-out: Remaining protein kinase activity
T2 sequence (Q9NZJ5 30-1116): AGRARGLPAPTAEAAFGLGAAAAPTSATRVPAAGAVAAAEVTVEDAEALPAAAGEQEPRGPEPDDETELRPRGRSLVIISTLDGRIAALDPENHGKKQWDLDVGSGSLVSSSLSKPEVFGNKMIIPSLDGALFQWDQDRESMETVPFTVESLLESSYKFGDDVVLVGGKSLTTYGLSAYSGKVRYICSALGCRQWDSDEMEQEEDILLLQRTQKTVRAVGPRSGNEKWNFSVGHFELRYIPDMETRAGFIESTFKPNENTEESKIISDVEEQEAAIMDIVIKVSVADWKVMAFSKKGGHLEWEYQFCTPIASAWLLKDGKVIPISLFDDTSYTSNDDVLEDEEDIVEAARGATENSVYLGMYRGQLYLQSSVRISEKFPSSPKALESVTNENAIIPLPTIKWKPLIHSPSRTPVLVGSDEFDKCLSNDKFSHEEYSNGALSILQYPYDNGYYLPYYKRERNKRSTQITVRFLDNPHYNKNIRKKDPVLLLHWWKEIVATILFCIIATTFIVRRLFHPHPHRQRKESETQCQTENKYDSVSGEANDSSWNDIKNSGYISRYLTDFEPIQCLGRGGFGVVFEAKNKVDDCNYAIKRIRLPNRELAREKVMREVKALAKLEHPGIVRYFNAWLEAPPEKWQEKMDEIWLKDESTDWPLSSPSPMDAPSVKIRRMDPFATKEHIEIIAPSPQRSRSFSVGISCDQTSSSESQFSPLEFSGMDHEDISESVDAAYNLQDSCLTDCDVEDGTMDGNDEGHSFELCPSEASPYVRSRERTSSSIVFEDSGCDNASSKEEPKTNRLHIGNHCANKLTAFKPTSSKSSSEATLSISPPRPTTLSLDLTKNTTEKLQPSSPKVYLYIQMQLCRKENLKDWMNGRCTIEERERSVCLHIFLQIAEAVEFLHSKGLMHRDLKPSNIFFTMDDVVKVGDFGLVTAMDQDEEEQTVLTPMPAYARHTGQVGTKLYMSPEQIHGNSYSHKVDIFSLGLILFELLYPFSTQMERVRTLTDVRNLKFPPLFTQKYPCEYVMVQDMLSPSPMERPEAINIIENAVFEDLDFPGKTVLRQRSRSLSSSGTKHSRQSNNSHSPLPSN
Experimental: as §1

RSK2 = RSK2 (Homo sapiens, UniProt P51812); settings: read-out: Remaining protein kinase activity
Experimental: as §1

Chain of STK33 (Q9BYT3 whole entry): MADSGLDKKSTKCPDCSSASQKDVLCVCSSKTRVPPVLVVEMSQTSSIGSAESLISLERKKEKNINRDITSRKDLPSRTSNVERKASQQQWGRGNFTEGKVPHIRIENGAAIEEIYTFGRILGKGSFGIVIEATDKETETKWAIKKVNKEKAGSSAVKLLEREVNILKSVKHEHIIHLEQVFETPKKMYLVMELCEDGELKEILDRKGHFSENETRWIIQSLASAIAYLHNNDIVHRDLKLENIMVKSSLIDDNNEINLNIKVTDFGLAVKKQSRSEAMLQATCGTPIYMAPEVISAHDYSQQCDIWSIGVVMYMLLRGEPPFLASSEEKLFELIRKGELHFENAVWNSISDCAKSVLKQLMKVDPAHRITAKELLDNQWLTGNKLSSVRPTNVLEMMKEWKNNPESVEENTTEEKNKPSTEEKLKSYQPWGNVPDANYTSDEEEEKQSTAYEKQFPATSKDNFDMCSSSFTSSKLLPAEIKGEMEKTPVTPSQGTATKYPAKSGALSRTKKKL
Chain of AMPK (hum) (Q13131 whole entry): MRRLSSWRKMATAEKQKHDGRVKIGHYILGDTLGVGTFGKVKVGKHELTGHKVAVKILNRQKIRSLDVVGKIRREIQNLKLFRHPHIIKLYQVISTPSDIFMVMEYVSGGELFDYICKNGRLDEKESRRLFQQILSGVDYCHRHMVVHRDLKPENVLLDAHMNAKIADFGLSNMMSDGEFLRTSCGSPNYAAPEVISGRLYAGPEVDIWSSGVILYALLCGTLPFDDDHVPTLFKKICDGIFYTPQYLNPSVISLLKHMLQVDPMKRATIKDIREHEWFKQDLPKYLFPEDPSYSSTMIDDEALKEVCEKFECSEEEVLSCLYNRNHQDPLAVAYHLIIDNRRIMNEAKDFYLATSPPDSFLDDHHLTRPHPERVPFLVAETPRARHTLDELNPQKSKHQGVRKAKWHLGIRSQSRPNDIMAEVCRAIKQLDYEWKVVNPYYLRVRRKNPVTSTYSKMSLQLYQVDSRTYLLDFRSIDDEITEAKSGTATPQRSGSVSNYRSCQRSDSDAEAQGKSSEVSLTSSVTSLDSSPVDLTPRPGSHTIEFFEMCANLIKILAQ
Chain of AMPK (hum) (O43741 whole entry partner): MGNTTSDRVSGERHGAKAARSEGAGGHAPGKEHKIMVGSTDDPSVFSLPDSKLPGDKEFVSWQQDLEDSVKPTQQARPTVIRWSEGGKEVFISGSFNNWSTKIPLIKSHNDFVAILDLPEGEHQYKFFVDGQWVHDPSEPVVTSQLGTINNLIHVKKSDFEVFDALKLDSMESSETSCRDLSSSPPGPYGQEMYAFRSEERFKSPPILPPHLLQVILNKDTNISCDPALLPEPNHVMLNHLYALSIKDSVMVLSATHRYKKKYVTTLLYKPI
Chain of AMPK (hum) (P54619 whole entry partner): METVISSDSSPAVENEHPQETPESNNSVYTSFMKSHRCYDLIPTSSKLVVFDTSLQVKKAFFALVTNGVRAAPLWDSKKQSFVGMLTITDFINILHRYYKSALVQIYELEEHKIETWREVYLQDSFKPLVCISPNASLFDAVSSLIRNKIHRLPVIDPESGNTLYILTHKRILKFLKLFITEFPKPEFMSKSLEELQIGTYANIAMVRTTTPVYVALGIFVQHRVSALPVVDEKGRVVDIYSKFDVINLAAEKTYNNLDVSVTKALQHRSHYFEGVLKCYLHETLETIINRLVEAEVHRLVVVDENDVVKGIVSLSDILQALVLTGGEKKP
Chain of OSR1 (O95747 whole entry): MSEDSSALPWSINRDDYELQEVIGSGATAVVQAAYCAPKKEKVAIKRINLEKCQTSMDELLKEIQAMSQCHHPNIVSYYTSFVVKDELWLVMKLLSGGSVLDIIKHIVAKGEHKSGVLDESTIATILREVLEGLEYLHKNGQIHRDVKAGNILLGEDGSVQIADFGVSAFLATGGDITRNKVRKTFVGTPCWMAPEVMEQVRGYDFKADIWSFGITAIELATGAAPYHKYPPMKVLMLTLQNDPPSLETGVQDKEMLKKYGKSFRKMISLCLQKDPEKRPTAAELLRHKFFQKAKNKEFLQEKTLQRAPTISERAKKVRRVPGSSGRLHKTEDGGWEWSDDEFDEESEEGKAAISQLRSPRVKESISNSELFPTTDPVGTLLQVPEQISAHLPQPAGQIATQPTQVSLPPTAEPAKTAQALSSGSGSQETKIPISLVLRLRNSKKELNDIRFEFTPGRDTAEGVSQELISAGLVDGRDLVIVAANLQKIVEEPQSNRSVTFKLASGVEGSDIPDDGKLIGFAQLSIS
Chain of SmMLCK (Q15746 923-1914): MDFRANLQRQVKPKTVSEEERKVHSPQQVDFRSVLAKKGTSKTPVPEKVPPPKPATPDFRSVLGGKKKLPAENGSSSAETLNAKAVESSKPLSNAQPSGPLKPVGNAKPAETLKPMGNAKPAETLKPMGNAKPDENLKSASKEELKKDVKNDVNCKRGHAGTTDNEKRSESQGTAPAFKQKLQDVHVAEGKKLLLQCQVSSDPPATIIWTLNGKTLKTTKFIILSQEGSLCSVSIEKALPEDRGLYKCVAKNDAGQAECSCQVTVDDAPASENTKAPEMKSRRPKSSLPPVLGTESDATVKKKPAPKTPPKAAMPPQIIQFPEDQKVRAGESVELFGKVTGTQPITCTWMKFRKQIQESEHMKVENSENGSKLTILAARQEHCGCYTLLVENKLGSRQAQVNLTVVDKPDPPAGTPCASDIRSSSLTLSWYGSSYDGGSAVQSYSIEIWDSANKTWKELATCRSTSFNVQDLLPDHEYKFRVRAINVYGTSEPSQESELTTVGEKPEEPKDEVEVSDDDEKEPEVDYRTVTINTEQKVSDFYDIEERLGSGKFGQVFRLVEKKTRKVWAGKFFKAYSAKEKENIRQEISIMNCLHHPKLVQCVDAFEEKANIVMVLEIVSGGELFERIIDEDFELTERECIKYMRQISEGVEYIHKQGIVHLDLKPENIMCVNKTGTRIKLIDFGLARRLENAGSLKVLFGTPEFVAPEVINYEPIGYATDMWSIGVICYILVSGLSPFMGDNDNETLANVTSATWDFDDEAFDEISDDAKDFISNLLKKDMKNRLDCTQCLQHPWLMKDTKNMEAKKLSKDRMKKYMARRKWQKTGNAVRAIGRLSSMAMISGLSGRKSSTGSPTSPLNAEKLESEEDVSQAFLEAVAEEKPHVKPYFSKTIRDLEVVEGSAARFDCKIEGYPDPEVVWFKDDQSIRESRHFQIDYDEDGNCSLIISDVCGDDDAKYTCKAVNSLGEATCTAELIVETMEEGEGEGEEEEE
Chain of MLK3 (Q16584 whole entry): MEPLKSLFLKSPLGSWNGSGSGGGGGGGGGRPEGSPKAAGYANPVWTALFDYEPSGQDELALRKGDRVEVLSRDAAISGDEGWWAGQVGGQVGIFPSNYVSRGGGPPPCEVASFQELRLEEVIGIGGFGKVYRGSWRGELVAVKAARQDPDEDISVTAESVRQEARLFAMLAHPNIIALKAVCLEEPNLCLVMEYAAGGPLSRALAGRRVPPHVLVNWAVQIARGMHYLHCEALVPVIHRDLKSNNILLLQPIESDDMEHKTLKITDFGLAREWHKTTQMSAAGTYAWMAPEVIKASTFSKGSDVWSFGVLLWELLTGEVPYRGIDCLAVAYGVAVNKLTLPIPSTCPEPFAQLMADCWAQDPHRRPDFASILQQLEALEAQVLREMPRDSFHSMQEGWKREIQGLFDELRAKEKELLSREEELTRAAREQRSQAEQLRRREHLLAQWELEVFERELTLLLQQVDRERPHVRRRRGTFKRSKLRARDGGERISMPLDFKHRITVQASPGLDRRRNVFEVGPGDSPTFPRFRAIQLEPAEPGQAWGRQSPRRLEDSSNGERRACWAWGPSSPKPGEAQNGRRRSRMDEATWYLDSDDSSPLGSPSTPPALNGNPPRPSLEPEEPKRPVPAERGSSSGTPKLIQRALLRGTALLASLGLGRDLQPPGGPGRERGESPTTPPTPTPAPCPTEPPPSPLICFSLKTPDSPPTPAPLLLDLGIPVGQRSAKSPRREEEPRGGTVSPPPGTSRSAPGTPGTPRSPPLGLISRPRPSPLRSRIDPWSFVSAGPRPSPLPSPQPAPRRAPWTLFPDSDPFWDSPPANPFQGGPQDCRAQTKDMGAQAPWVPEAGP
Chain of CK2 (P68400 whole entry): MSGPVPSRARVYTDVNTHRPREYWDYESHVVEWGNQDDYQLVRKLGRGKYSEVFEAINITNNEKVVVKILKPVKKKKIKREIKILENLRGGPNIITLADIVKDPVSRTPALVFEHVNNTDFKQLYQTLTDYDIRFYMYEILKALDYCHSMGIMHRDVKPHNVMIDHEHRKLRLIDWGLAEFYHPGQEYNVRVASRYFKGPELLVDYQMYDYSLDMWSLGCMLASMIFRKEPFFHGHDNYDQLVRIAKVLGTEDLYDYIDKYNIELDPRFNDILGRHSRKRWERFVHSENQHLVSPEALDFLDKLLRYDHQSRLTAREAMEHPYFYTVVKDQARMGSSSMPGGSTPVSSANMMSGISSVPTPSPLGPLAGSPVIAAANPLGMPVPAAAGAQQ

COc1ccc2sc(-c3cncc(NC(C)=O)c3)nc2c1 [PST-001, N-(5-(5-Methoxybenzo[d]thiazol-2-yl)pyridin-3-yl)acetamide]
remaining activity at 1 µM (OSR1): 120%
remaining activity at 100 µM (OSR1): 136%
remaining activity at 1 µM (STK33): 113%
remaining activity at 100 µM (STK33): 112%
remaining activity at 100 µM (CK2; CK2): 95%
remaining activity at 1 µM (CK2): 102%
remaining activity at 1 µM (SmMLCK): 118%
remaining activity at 100 µM (SmMLCK): 99%
remaining activity at 1 µM (HIPK1): 113%
remaining activity at 100 µM (HIPK1): 113%
remaining activity at 1 µM (PRAK): 114%
remaining activity at 100 µM (PRAK): 116%
Remaining protein kinase activity (MLK3; 1 μM): 109%
Remaining protein kinase activity (MLK3; 100 μM): 60%
remaining activity at 1 µM (AMPK (hum)): 99%
remaining activity at 100 µM (AMPK (hum)): 69%
remaining activity at 1 µM (EIF2AK3): 123%
remaining activity at 100 µM (EIF2AK3): 118%
remaining activity at 1 µM (RSK2): 113%
remaining activity at 100 µM (RSK2): 100%

COc1ccc2sc(-c3cncc(N)c3)nc2c1 [compound 1, 5-(5-Methoxybenzo[d]thiazol-2-yl)pyridin-3-amine]
remaining activity at 1 µM (OSR1; OSR1, 1 μM): 128%
remaining activity at 100 µM (OSR1; OSR1, 100 μM): 111%
remaining activity at 1 µM (STK33; STK33, 1 μM): 111%
remaining activity at 100 µM (STK33; STK33, 100 μM): 57%
remaining activity at 1 µM (CK2; CK2, 1 μM): 103%
remaining activity at 100 µM (CK2; CK2): 21%
remaining activity at 1 µM (SmMLCK): 98%
remaining activity at 100 µM (SmMLCK): 41%
remaining activity at 1 µM (HIPK1; HIPK1, 1 μM): 116%
remaining activity at 100 µM (HIPK1; HIPK1, 100 μM): 36%
remaining activity at 1 µM (PRAK; PRAK, 1 μM): 128%
remaining activity at 100 µM (PRAK; PRAK, 100 μM): 36%
Remaining protein kinase activity (MLK3; 1 μM): 101%
Remaining protein kinase activity (MLK3; 100 μM): 29%
remaining activity at 1 µM (AMPK (hum); AMPK (hum), 1 μM): 107%
remaining activity at 100 µM (AMPK (hum); AMPK (hum), 100 μM): 46%
remaining activity at 1 µM (EIF2AK3; EIF2AK3, 1 μM): 122%
remaining activity at 100 µM (EIF2AK3; EIF2AK3, 100 μM): 84%
remaining activity at 1 µM (RSK2; RSK2, 1 μM): 115%
remaining activity at 100 µM (RSK2; RSK2, 100 μM): 56%

Source: PMC8617627, “Novel DYRK1A Inhibitor Rescues Learning and Memory Deficits in a Mouse Model of Down Syndrome” (Pharmaceuticals, 2021)
